# Results as given in BindingDB's records for doi:10.3109/14756360903179401 (Universidad Nacional Autonoma De Mexico, 2010).
# Molecular target: T1, cDNA, FLJ78895, highly similar to 3-oxo-5-alpha-steroid 4-dehydrogenase 1 (Homo sapiens, UniProt B7Z4L2)
# T1 sequence (B7Z4L2 whole entry): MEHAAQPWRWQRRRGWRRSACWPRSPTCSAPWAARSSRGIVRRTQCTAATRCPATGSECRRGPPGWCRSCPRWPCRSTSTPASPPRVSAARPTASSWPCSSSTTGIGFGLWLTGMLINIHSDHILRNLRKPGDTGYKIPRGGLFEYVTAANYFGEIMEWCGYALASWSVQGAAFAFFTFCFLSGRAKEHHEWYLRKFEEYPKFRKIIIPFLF
# Test: 5α-Reductase Activity Assay
# Details: pH 6.5; 37 °C
# Method: The reaction mixture contained a final volume of 1 mL: 1 mM dithiothreitol, sodium phosphate buffer 40 mM, at pH 6.5 for human prostate, 2 mM NADPH, 2 nM [1,2,6,7-3H]T [Cabeza et al., Steroids 60:630-5]. The reaction in duplicate was started when it was added to the enzymatic fraction (500 μg protein in a volume of 80 μL) incubated at 37°C for 60 min [Hirosumi et al., J. Steroid Biochem. Mol. Biol., 52:357-63] and stopped by mixing with 1 mL of dichloromethane; this was considered as the end point. Incubation without tissue was used as a control. The mixture (incubation medium/dichloromethane) was agitated on a vortex for 1 min and the dichloromethane phase was separated and placed in another tube. This procedure was repeated four more times. The dichloromethane extract was evaporated to dryness under a nitrogen stream and suspended in […] that was spotted on high-performance thin layer chromatography (HPTLC) Keiselgel 60 F254 plates. T and DHT were used as carriers, and were applied in different lanes on both lateral sides of the plates (T, T + DHT, and DHT). The plates were developed in chloroform-acetone, 9:1, and were air-dried; the chromatography was repeated twice more. The steroid carriers were detected using phosphomolybdic acid reagent (DHT) and with an ultraviolet (UV) lamp (254 nm) (T). After the plates were segmented into pieces of 1 cm each, these were cut off and the strips soaked in 5 mL of Ultima Gold (Packard). The radioactivity was determined in a scintillation counter (Packard Tri-Carb 2100 TR). The radioactivity content in the segment corresponding to T and DHT carriers was identified. Radioactivity with identical chromatographic behavior to the DHT standard was considered as the DHT transformation.
row,Compound,IC50
1,"CC(=O)O[C@]1(C(C)=O)CCC2C3C(CC[C@@]21C)[C@@]1(C)CCC(=O)C=C1[C@H]1O[C@@H]31 (stereo partly drawn) [3,20-Dioxo-6,7-epoxypregn-4-ene-7α-yl acetate (8)]",22 nM
2,"CC(=O)O[C@]1(C(C)=O)CCC2C3C=CC4=CC(=O)CC[C@]4(C)C3CC[C@@]21C (stereo partly drawn) [3,20-Dioxopregna-4,6-dien-17α-yl acetate (7)]",70 nM
3,"CC(=O)O[C@]1(C(C)=O)CCC2C3C=C(Cl)C4=CC(=O)CC[C@]4(C)C3CC[C@@]21C (stereo partly drawn) [6-Chloro-3,20-dioxopregna-4,6-diene-17α-yl acetate (9)]",19 nM
4,CC(=O)O[C@]1(C(C)=O)CCC2C3CCC4=CC(=O)CC[C@]4(C)C3CC[C@@]21C (stereo partly drawn) [17α-Acetoxyprogesterone (6)],10 nM
5,CC(C)(C)NC(=O)C1CCC2C3CCC4NC(=O)C=C[C@]4(C)C3CC[C@]12C (stereo not given in full) [Finasteride (3)],8.5 nM
